For one series, the system named is hair follicle cells. Put plainly: Ki67 immunofluorescence staining of cultured scalp tissue (hair follicle cell proliferation). The following applies: for Ki67 positive cells (%): scalp tissue, 24 hours. Also on record: species or system human. How it is done: (§1) The ratio of hair follicle telogen and the expression level of hair follicle cell proliferation-related factor proteins depending on whether 3-hydroxypropionic acid was applied or not were evaluated according to the following methods.
(§2) The human hair follicles or scalp tissues provided for research purposes (IRB No. 4-2023-1052; Institutional Review Board, Severance Medical Center, Yonsei University College of Medicine) were washed several times with PBS to remove residual impurities, and randomly divided into each group. The hair follicles and scalp tissues were cultured in Williams' Medium E (Sigma) supplemented with 2 mM L-glutamine (Sigma-Aldrich), 10 µg/ml insulin (Sigma-Aldrich), 100 ng/ml hydrocortisone (Sigma-Aldrich), 0.1% fungizone (Gibco, USA), and 1% antibioticantimycotic (Gibco), and 1% […] (Gibco) at 37°C in 5% CO2.
After the scalp tissue was treated with the test composition for 24 hours, the obtained tissue was prepared into a frozen block, and frozen sectioned at a thickness of 5 µm using a Cryostat microtome (Leica Biosystems, Germany), and the tissue sections were attached onto Silane-coated slides. Then, in order to stain the tissue sections and photograph the cross sections, the OCT compound was removed, a primary antibody specifically binding to Ki67 (Anti-Ki67 antibody: ab15580; abcam) was attached, and a fluorescently labeled secondary antibody specifically binding to this primary antibody (Goat pAb to Rb IgG (H+L): a11012; Invitrogen) was attached. Finally, the tissues were fixed with a fixative containing blue fluorescent DAPI (VECTASHIELD® mounting medium with DAPI; Vector laboratories) that stains the cell nucleus, and then images were taken at 100x magnification using a fluorescence microscope (M2; Zeiss). The percentage of Ki67-expressing cells among the total cells labeled with DAPI was measured from the captured images, and a higher value means a higher number of Ki67-expressing cells.

The next series has as its system human hair follicles. Put plainly: Ratio of hair follicle telogen in DHT-treated cultured hair follicles (visual evaluation). Particulars: for Telogen ratio (%): 6 days. The procedure:
as §1, §2
To induce the telogen in the anagen hair follicle tissue, the test composition was treated with 1 µM dihydrotestosterone (DHT). The medium was replaced every 3 days and cultured for 6 days. The ratio of hair follicle telogen was visually evaluated based on the ratio of hair follicles in which the telogen occurred for 6 days compared to day 0.

A short description of series [1]: Cell viability (WST / CCK-8 absorbance at 450 nm). In kind it is cell-based, Human. Particulars: human, follicle dermal papilla cells, 24 hours. The procedure: (§3) Human follicle dermal papilla cells (PromoCell GmbH) were cultured in human follicle dermal papilla cells growth medium(PromoCell GmbH) supplemented with fetal calf serum(FCS), bovine pituitary extract(BPE), basic fibroblast growth factor(bFGF), and insulin at 37°C and 5% CO2.
(§4) […] WST substrate solution (high sensitivity water soluble tetrazolium salt, CCK-8, DOJINDO) was then added to the medium, and cultured at 37°C for 2 hours.
(§5) During the culture, a […] formazan was produced by the reaction between WST and intracellular dehydrogenase, and the absorbance (OD, wavelength 450 nm) was measured. The cell viability was calculated according to the following Equation 1 below, and the results are shown in Table 1 below. [formula]
(§6) In Equation 1, the 'experimental group' is the group treated with an aqueous solution containing 3HP; the 'control group' is the medium containing only the WST substrate; and the 'negative control group' is the group in which a medium containing WST substrate was treated with an aqueous solution of 0% 3HP.

Series [2] has as its system Human follicle dermal papilla cells. Put plainly: Cell viability (WST / CCK-8 absorbance at 450 nm). The series is classed as cell-based. The following applies: for Human follicle dermal papilla cell viability (%): 24 hours, single runs (Once / Two times / Three times), 1440 min. The procedure: as §3, §4, §5, §6
The next series deals with Srd5α1. Put plainly: 5α-reductase gene expression by real-time PCR (relative quantification vs GAPDH). The following applies: for mrna remaining at 0.0125 %: 3HP 0.0125 %; for mrna remaining at 0.025 %: 3HP 0.025 %. In kind it is cell-based, Human. The procedure: as §3
(§7) The cultured human follicle dermal papilla cells were divided into 5x10^4 cells in a 96-well plate, and when the cells reached 80% or more confluency, they were treated with the 3-hydroxypropionic acid aqueous solution according to Preparation Example 1 at four concentrations (3HP concentrations: 0 wt.%, 0.0125 wt.%, 0.025 wt.%, and 0.05 wt.%), and then cultured for 24 hours. Then, the total RNA in the cells was extracted, and cDNA was synthesized from the extracted RNA. The synthesized cDNA was subjected to real-time polymerase chain reaction. And, the relative quantitative analysis of each gene was performed using GAPDH (one of the house-keeping genes). The relative quantification (RQ) value was calculated according to the following Equation 2. RQ = 2−ΔΔCT; ΔΔCT = ΔCT (Treatment)−ΔCT (Control); ΔCT = CT (Targetgene)−CT (House-keepinggene) [formula]
(§8) In the Equation 2, 'Treatment' is the group treated with 3HP; 'Control' is the group not treated with 3HP; 'Target gene' is Srd5α1 and TGF-β1, and 'House-keeping gene' is GAPDH.
(In general: In qPCR the cycle at which signal appears reflects the starting amount.)

The next series deals with TGF-β1. The series is described as follows: TGF-β1 gene expression by real-time PCR (relative quantification vs GAPDH). In kind it is cell-based, Human. Particulars: for mrna remaining at 0.0125 %: 3HP 0.0125 %; for mrna remaining at 0.025 %: 3HP 0.025 %. The procedure: as §3, §7, §8
[3] abbreviates: Homo sapiens, 24 h, 24 hours, human follicle dermal papilla cells, Average, read-out: 5α-reductase gene expression level (RQ).
Where [4] appears, read: Homo sapiens, 24 h, 24 hours, human follicle dermal papilla cells, single runs (Once / Two times / Three times), read-out: 5α-reductase gene expression level (RQ).
Setting [5] is: Homo sapiens, 24 h, 24 hours, human follicle dermal papilla cells, Average, read-out: TGF-β1 gene expression level (RQ).
Where [6] appears, read: Homo sapiens, 24 h, 24 hours, human follicle dermal papilla cells, single runs (Once / Two times / Three times), read-out: TGF-β1 gene expression level (RQ).

“And” between values parts separate entries of the source, which are not always exact repeats. Identical values can stand only once. Like-named read-outs stand apart in the source and are kept apart here.

This note sets out measurements from patent publication EP4684783A1, “COSMETIC COMPOSITION FOR PREVENTING, ALLEVIATING, OR AMELIORATING HAIR LOSS” (LG Chem, Ltd., priority 2023, dated 2025).

With `Nc1cc(N2CCCCC2)nc(N)[n+]1[O-]` [Minoxidil, reference compound], the “Ki67 positive cells (%)” value in the series on hair follicle cells (0.1 mM Minoxidil) was 47.187%.

Consider `C[C@]12CCC(=O)C[C@@H]1CC[C@@H]1[C@@H]2CC[C@]2(C)[C@@H](O)CC[C@@H]12` [DHT, dihydrotestosterone, reference compound], for which the “Telogen ratio (%)” value with human hair follicles (1 µM DHT alone (DHT control group)) came to 40.000%.

`O=C(O)CCCC[C@@H]1SC[C@@H]2NC(=O)N[C@@H]21` [Biotin, reference compound]: the “Telogen ratio (%)” value in the series on human hair follicles (DHT + 2 ng/ml Biotin) was 10.000%. Further, the “Ki67 positive cells (%)” value in the series with hair follicle cells (2 ng/ml Biotin) stood at 44.631%.

In the case of `CC(C)(C)NC(=O)[C@H]1CC[C@H]2[C@@H]3CC[C@H]4NC(=O)C=C[C@]4(C)[C@H]3CC[C@]12C` [Finasteride, reference compound], the “Telogen ratio (%)” value in the series with human hair follicles (DHT + 0.5 mM Finasteride) is on record as 0.000%.

As usually defined, the viability is the share of living cells, or the viability signal relative to a control. A lower viability goes with more harm to the cells. For the molecule `O=C(O)CCO` [Example 3HP, 3-hydroxypropionic acid], the viability at 24 h in series [1] (3HP 0.0125 %, Average) was determined as 92.6%; in series [1] (3HP 0.0125 %, single runs (Once / Two times / Three times)), 90.8%; in series [1] (3HP 0.025 %, Average), 86.7%; in series [1] (3HP 0.025 %, single runs (Once / Two times / Three times)) it was 86.6%; in series [1] (3HP 0.05 %, Average), 85.8%; in series [1] (3HP 0.05 %, single runs (Once / Two times / Three times)) it was 86.5%. Further, the viability at 24 h in series [1] (3HP 0.1%, Average) was found to be 75.3%; in series [1] (3HP 0.1%, single runs (Once / Two times / Three times)), 77.5%. Moreover, the “Human follicle dermal papilla cell viability (%)” value was 92.037% and 95.062% in series [2] (3HP 0.0125 %); 84.153% and 89.275% in series [2] (3HP 0.025 %); 86.027% and 85.031% in series [2] (3HP 0.05 %); 72.756% and 75.694% in series [2] (3HP 0.1%). Besides, in series [2] (under the treatment concentrations of Table 2, result in words), the cell viability entry is recorded as “high”. For the same molecule, the mrna remaining at 0.0125 % in the series with Srd5α1 (setting [3]) worked out at 86.6%; with Srd5α1 (setting [4]), 85.6%; with TGF-β1 (setting [5]) it was 80.2%; with TGF-β1 (setting [6]), 75.6%. In addition, the mrna remaining at 0.025 % in the series on Srd5α1 (setting [3]) was 88.8%; with Srd5α1 (setting [4]), 87.1%; with TGF-β1 (setting [5]) it was 69.4%; with TGF-β1 (setting [6]) it was 70.4%. The mrna remaining at 0.05 % in the series on Srd5α1 (Homo sapiens, 24 h, 3HP 0.05 %, 24 hours, human follicle dermal papilla cells, Average, read-out: 5α-reductase gene expression level (RQ)) worked out at 127%; with TGF-β1 (Homo sapiens, 24 h, 3HP 0.05 %, 24 hours, human follicle dermal papilla cells, Average, read-out: TGF-β1 gene expression level (RQ)) it was 130%. Further, in the series on Srd5α1 (under the treatment concentration of Table 3, result in words), the “expression of the 5α-reductase gene” value is “significantly inhibited”. Also, the “expression of the TGF-β1 gene” value with TGF-β1 (under the treatment concentration of Table 4, result in words) is “significantly inhibited”. Moreover, the “hair follicle telogen ratio” value in the series on human hair follicles (0.1%, 0.5%, and 1.0% 3HP compared to the DHT control group, result in words) is on record as “significantly decreased”. In addition, the figures for the “Telogen ratio (%)” value in the series with human hair follicles (DHT + 0.1% 3HP), with human hair follicles (DHT + 0.5% 3HP) and in the series with human hair follicles (DHT + 1.0% 3HP) were 6.250%, 0.000% and 0.000%, respectively. For the same molecule, the “proliferation effect of hair follicle cells” value in the series on hair follicle cells (0.1% 3HP compared to the negative control group, Ki67 immunofluorescence staining, result in words) is listed as “significantly increased”. Further, the “Ki67 positive cells (%)” value in the series with hair follicle cells (0.1% 3HP) is reported as 48.745%.
